Data as given in patent publication US20240358693A1, “METHODS OF TREATING PAIN” (Aisa Pharma, Inc., priority 2023, published 2024).

System: participants with SSc-RP
Assay: Average duration of weekly RP attacks (minutes)
Type: in vivo, human
Text: The absolute change in average duration of weekly RP attacks from baseline to the end of each dosing period was and will be a secondary outcome variable. The sponsor-developed participant-informed diary was and will be used to record data. Average duration of weekly RP attacks is defined as the total duration of RP attacks divided by total number of RP attacks within the last 7 days of each dosing period. Total duration of RP attacks during the last 7 days of screening period divided by the total number of RP attacks will be used as baseline for the analysis of all periods. The variable will be calculated similar to frequency data as before.

[1] = Cilnidipine 10 mg, n=1, Excluding Outliers, ITT Part A
[2] = Cilnidipine 10 mg, n=1, ITT Part A
[3] = Cilnidipine 10 mg, Baseline RCS subgroup 1 (unnamed), ITT Part A
[4] = Cilnidipine 10 mg, Excluding Outliers, Baseline RCS subgroup 1 (unnamed), ITT Part A
[5] = Cilnidipine 10 mg, Excluding Outliers, ITT Population - Part A
[6] = Cilnidipine 10 mg, Excluding Outliers, by Baseline RCS, subgroup 1, ITT Population - Part A
[7] = Cilnidipine 10 mg, by Baseline RCS, subgroup 1, ITT Population - Part A
[8] = Cilnidipine 20 mg, n=2, Excluding Outliers, ITT Part A
[9] = Cilnidipine 20 mg, n=2, ITT Part A
[10] = Cilnidipine 20 mg, Baseline RCS subgroup 1 (unnamed), ITT Part A
[11] = Cilnidipine 20 mg, Excluding Outliers, Baseline RCS subgroup 1 (unnamed), ITT Part A

COCCOC(=O)C1=C(C)NC(C)=C(C(=O)OC/C=C/c2ccccc2)C1c1cccc([N+](=O)[O-])c1 (stereo not shown) [Cilnidipine, cilnidipine] was tested, and the “Average Duration of Weekly Symptomatic RP Attacks, Change from Baseline, Mean” value [1] was -16.74 min, the “Average Duration of Weekly Symptomatic RP Attacks, Change from Baseline, Median” value [1] was -16.74 min and the “Average Duration of Weekly Symptomatic RP Attacks, Mean” value [1] was 31.64 min. The “Average Duration of Weekly Symptomatic RP Attacks, Median” value [1] was 31.64 min, the “Average Duration of Weekly Symptomatic RP Attacks, Percent Change from Baseline, Mean” value [1] was −34.60% and the “Average Duration of Weekly Symptomatic RP Attacks, Percent Change from Baseline, Median” value [1] was −34.60%. The “Average Duration of Weekly Symptomatic RP Attacks, Change from Baseline, Mean” value [2] was -16.74 min, the “Average Duration of Weekly Symptomatic RP Attacks, Change from Baseline, Median” value [2] was -16.74 min and the “Average Duration of Weekly Symptomatic RP Attacks, Mean” value [2] was 31.64 min. For the same compound, the “Average Duration of Weekly Symptomatic RP Attacks, Median” value [2] was 31.64 min, the “Average Duration of Weekly Symptomatic RP Attacks, Percent Change from Baseline, Mean” value [2] was −34.60% and the “Average Duration of Weekly Symptomatic RP Attacks, Percent Change from Baseline, Median” value [2] was −34.60%. The “Average Duration of Weekly Symptomatic RP Attacks, Change from Baseline, Mean” value [3] was -16.74 min, the “Average Duration of Weekly Symptomatic RP Attacks, Change from Baseline, Median” value [3] was -16.74 min and the “Average Duration of Weekly Symptomatic RP Attacks, Mean” value [3] was 31.64 min. The “Average Duration of Weekly Symptomatic RP Attacks, Median” value [3] was 31.64 min, the “Average Duration of Weekly Symptomatic RP Attacks, Percent Change from Baseline, Mean” value [3] was −34.60% and the “Average Duration of Weekly Symptomatic RP Attacks, Percent Change from Baseline, Median” value [3] was −34.60%. For the same compound, the “Average Duration of Weekly Symptomatic RP Attacks, Change from Baseline, Mean” value [4] was -16.74 min, the “Average Duration of Weekly Symptomatic RP Attacks, Change from Baseline, Median” value [4] was -16.74 min and the “Average Duration of Weekly Symptomatic RP Attacks, Mean” value [4] was 31.64 min. For the same compound, the “Average Duration of Weekly Symptomatic RP Attacks, Median” value [4] was 31.64 min, the “Average Duration of Weekly Symptomatic RP Attacks, Percent Change from Baseline, Mean” value [4] was −34.60% and the “Average Duration of Weekly Symptomatic RP Attacks, Percent Change from Baseline, Median” value [4] was −34.60%. The “Average Duration of Weekly RP Attacks (All Attacks) Change from Baseline, Mean” value [5] was -8.48 min, the “Average Duration of Weekly RP Attacks (All Attacks) Change from Baseline, Median” value [5] was -8.48 min and the “Average Duration of Weekly RP Attacks (All Attacks) Percent Change from Baseline, Mean” value [5] was −21.20%. The “Average Duration of Weekly RP Attacks (All Attacks) Percent Change from Baseline, Median” value [5] was −21.20%, the “Average Duration of Weekly RP Attacks (All Attacks), Mean” value (from here on “Average Duration … (All Attacks), Mean”) [5] was 31.52 min and the “Average Duration of Weekly RP Attacks (All Attacks), Median” value (“Average Duration … (All Attacks), Median” for short) [5] was 31.52 min. The “Average Duration of Weekly RP Attacks (All Attacks) Change from Baseline, Mean” value [6] was -8.48 min, the “Average Duration of Weekly RP Attacks (All Attacks) Change from Baseline, Median” value [6] was -8.48 min and the “Average Duration of Weekly RP Attacks (All Attacks) Percent Change from Baseline, Mean” value [6] was −21.20%. The “Average Duration of Weekly RP Attacks (All Attacks) Percent Change from Baseline, Median” value [6] was −21.20%, the “Average Duration … (All Attacks), Mean” value [6] was 31.52 min and the “Average Duration … (All Attacks), Median” value [6] was 31.52 min. For the same compound, the “Average Duration of Weekly RP Attacks (All Attacks) Change from Baseline, Mean” value (Cilnidipine 10 mg, ITT Part A) was -8.48 min, the “Average Duration of Weekly RP Attacks (All Attacks) Change from Baseline, Median” value (Cilnidipine 10 mg, ITT Part A) was -8.48 min and the “Average Duration of Weekly RP Attacks (All Attacks) Percent Change from Baseline, Mean” value (Cilnidipine 10 mg, ITT Part A) was −21.20%. The “Average Duration of Weekly RP Attacks (All Attacks) Percent Change from Baseline, Median” value (Cilnidipine 10 mg, ITT Part A) was −21.20%, the “Average Duration … (All Attacks), Mean” value (Cilnidipine 10 mg, ITT Part A) was 31.52 min and the “Average Duration … (All Attacks), Median” value (Cilnidipine 10 mg, ITT Part A) was 31.52 min. The “Average Duration of Weekly RP Attacks (All Attacks) Change from Baseline, Mean” value [7] was -8.48 min, the “Average Duration of Weekly RP Attacks (All Attacks) Change from Baseline, Median” value [7] was -8.48 min and the “Average Duration of Weekly RP Attacks (All Attacks) Percent Change from Baseline, Mean” value [7] was −21.20%. The “Average Duration of Weekly RP Attacks (All Attacks) Percent Change from Baseline, Median” value [7] was −21.20%, the “Average Duration … (All Attacks), Mean” value [7] was 31.52 min and the “Average Duration … (All Attacks), Median” value [7] was 31.52 min. The “Average Duration of Weekly Symptomatic RP Attacks, Change from Baseline, Mean” value [8] was -3.13 min, the “Average Duration of Weekly Symptomatic RP Attacks, Change from Baseline, Median” value [8] was -3.13 min and the “Average Duration of Weekly Symptomatic RP Attacks, Mean” value [8] was 16.73 min. For the same compound, the “Average Duration of Weekly Symptomatic RP Attacks, Median” value [8] was 16.73 min, the “Average Duration of Weekly Symptomatic RP Attacks, Percent Change from Baseline, Mean” value [8] was −31.05% and the “Average Duration of Weekly Symptomatic RP Attacks, Percent Change from Baseline, Median” value [8] was −31.05%. For the same compound, the “Average Duration of Weekly Symptomatic RP Attacks, Change from Baseline, Mean” value [9] was -3.13 min, the “Average Duration of Weekly Symptomatic RP Attacks, Change from Baseline, Median” value [9] was -3.13 min and the “Average Duration of Weekly Symptomatic RP Attacks, Mean” value [9] was 16.73 min. For the same compound, the “Average Duration of Weekly Symptomatic RP Attacks, Median” value [9] was 16.73 min, the “Average Duration of Weekly Symptomatic RP Attacks, Percent Change from Baseline, Mean” value [9] was −31.05% and the “Average Duration of Weekly Symptomatic RP Attacks, Percent Change from Baseline, Median” value [9] was −31.05%. The “Average Duration of Weekly Symptomatic RP Attacks, Change from Baseline, Mean” value [10] was -3.13 min, the “Average Duration of Weekly Symptomatic RP Attacks, Change from Baseline, Median” value [10] was -3.13 min and the “Average Duration of Weekly Symptomatic RP Attacks, Mean” value [10] was 16.73 min. For the same compound, the “Average Duration of Weekly Symptomatic RP Attacks, Median” value [10] was 16.73 min, the “Average Duration of Weekly Symptomatic RP Attacks, Percent Change from Baseline, Mean” value [10] was −31.05% and the “Average Duration of Weekly Symptomatic RP Attacks, Percent Change from Baseline, Median” value [10] was −31.05%. The “Average Duration of Weekly Symptomatic RP Attacks, Change from Baseline, Mean” value [11] was -3.13 min, the “Average Duration of Weekly Symptomatic RP Attacks, Change from Baseline, Median” value [11] was -3.13 min and the “Average Duration of Weekly Symptomatic RP Attacks, Mean” value [11] was 16.73 min. The “Average Duration of Weekly Symptomatic RP Attacks, Median” value [11] was 16.73 min, the “Average Duration of Weekly Symptomatic RP Attacks, Percent Change from Baseline, Mean” value [11] was −31.05% and the “Average Duration of Weekly Symptomatic RP Attacks, Percent Change from Baseline, Median” value [11] was −31.05%. For the same compound, the “Average Duration of Weekly RP Attacks (All Attacks) Change from Baseline, Mean” value (Cilnidipine 20 mg, Excluding Outliers, ITT Population - Part A) was -1.09 min.
